Measured values reported in US8524899B2, “Alternative heterocycles for DNA recognition” (California Institute of Technology, priority 2003, dated 2013).

What was measured:
[1] = system: 32P-3′-labeled EcoRI/PvuII restriction fragment of plasmid pDR1 (sites 5′-TGTCTA-3′, 5′-TGTTTA-3′, 5′-TGTATA-3′, 5′-TGTGTA-3′); test: Quantitative DNase I footprint titration on pDR1 restriction fragment; format: binding
Procedure: FIG. 4 illustrates the equilibrium association constants Ka[M^−1] for Polyamide Oligomers A-C, N, Q, and P. The reported association constants are the average values obtained from three DNase I footprint titration experiments, with the standard deviation for each data set indicated in the experiments. Assays were carried out at 22° C. at pH 7.0 in the presence of 10 mM Tris-HCl, 10 mM KCl, 10 mM MgCl2, and 5 mM CaCl2 with an equilibration time of 12 h. Specificities are give in brackets under the Ka values and calculated as Ka (match)/Ka (mismatch).
To examine whether an imidazo[4,5-b]pyridine unit Ip can replace a five-membered imidazole ring Im within an eight-ring hairpin polyamide regarding DNA binding affinity and specificity, polyamide oligomer A and its related all five-membered ring hairpin oligomer N were evaluated by DNase I footprint titrations under identical conditions. Quantitative DNase I footprint titration experiments (10 mM Tris-HCl, 10 mM KCl, 10 mM MgCl2, 5 mM CaCl2, pH 7.0, 22° C., equilibration time: 12 h) were performed on a ^32P-3′-labeled EcoRI/PvuII restriction fragment of plasmid pDR1 0 (FIG. 2). This DNA fragment contains four 6-base pair binding sites which differ at one position, 5′-TGTCTA-3′,5′-TGTTTA-3′,5′-TGTATA-3′, and 5′-TGTGTA-3′. The latter one was regarded as the possible match site having a G•C base pair under the Ip/Py or Im/Py pair, respectively.
Construction of plasmid DNA. The plasmid pDR1 was constructed by hybridization of the two oligonucleotides 5′-GATCAGGCTGTC-[…]-GCTGCTGTTTATGGACG-GCTGCTGTATATGGACGG-CTGGGCGA-3′ (SEQ ID NO:1) and 5′-AGCTTCGC-[…]-[…]-3′ (SEQ ID NO:2) followed by ligation into the BamHI/HinDIII restriction fragment of pUC19 using T4 DNA ligase. The resultant plasmid was then used to transform E. coli XL-1 Blue Supercompetent cells. Ampicillin-resistant white colonies were selected from 25 mL Luria-Bertani agar plates containing […] ampicillin, treated with XGAL and IPTG solutions and grown overnight at 37° C. Cells were harvested after overnight growth at 37° C. Large-scale plasmid purification was performed with Qiagen, purification kits. The presence of the desired insert was determined by dideoxy sequencing. DNA concentrations were determined at 260 nm using the relationship 1 OD unit) 50 μg/mL duplex DNA.
Preparation of 3′-End-Labeled DNA Restriction Fragments. The plasmid pDR1 was linearized with EcoRI and PVuII and treated with the Klenow fragment of DNA […], [R-^32P]-dATP, and [R-^32P]-TTP for 3′-end labeling. The labeled 3′-fragment was purified on a 7% nondenaturing polyacrylamide gel (5% cross-linkage) and the desired 284 base pair band isolated after visualization by autoradiography. The DNA was precipitated with 2-propanol, the pellet washed, lyophilized, and resuspended in RNase-free H2O. Chemical sequencing reactions were performed according to published protocols. (Troschütz, R.; Lückel, A. Arch. Pharm., 325, 617-619, 1992.)
DNase I Footprinting. All reactions were carried out in a volume of 400 μL according to published procedures. Quantitation by storage phosphor autoradiography and determination of equilibrium association constants were as previously described. (Trauger, J. W.; Dervan, P. B. Methods Enzymol., 340, 450-466, 2001.)

[2] = system: 5′-TGGXCA-3′ (X=A, T, G, C); test: DNase I footprint titration, single Hz/Py, Py/Hz, Hz/Bi, Bi/Hz pair position; format: binding; conditions: for preference for T•A over A•T: Hz/Py (G), Hz/Bi (I) pair; for preference for A•T over T•A: Py/Hz (J), Bi/Hz (L) pair
Procedure: FIG. 15 is a table showing the association equilibrium constant Ka[M^−1] for polyamide oligomers G and J. The reported association constants are the average values obtained from three DNase I footprint titration experiments, with the standard deviation given in parenthesis. Assays were carried out at 22° C. at pH 7.0 in the presence of 10 mM Tris-HCl, 10 mM KCl, 10 mM MgCl2, and 5 mM CaCl2 at pH 7.0.
FIG. 19 is a a table showing the association equilibrium constant Ka[M^−1] for polyamide oligomers I and L. The reported association constants are the average values obtained from three DNase I footprint titration experiments, with the standard deviation given in parenthesis. Assays were carried out at 22° C. at pH 7.0 in the presence of 10 mM Tris-HCl, 10 mM KCl, 10 mM MgCl2, and 5 mM CaCl2 at pH 7.0.
For polyamides Im-Im-Hz-Py-γ-Im-Py-Py-Py-β-Dp (oligomer G) and Im-Im-Py-Py-γ-Im-Hz-Py-Py-β-Dp (oligomer J), the DNA-sequence specificity at a single ring-pairing position (bolded in the sequences listed above) was determined by varying a single DNA base pair within the parent-sequence context, 5′-TGGXCA-3′, to all four Watson-Crick base pairs (X=A, T, G, C) and comparing the relative affinities of the resulting complexes (FIG. 14). The variable base-pair position was installed opposite the novel Hz/Py and Py/Hz pairs, designed to target T•A and A•T respectively. Equilibrium association constants (Ka) for polyamide oligomers containing Py/Py, Hp/Py and Py/Hp pairs have been reported and are included for comparison with values presented here (FIG. 15).
The variable base-pair position was installed opposite the novel Hz/Bi and Bi/Hz pairs, designed to target T•A and A•T respectively.
Footprinting Experiments.—Plasmids pDHN1 and pDEH10 were constructed and 5′-radiolabeled as previously described. (Nguyen, D. H. et al., Bioorg. Med. Chem., 9: 7-17, 2001; Melander, C. et al., Chem. Eur. J., 24: 4487-4497, 2000.) DNase I footprint titrations were performed according to standard protocols. (Trauger, J. W. et al., Methods Enzymol., 340: 450-466, 2001.)

Compound | selectivity for A,T over G,C [2] | preference for T•A over A•T [2] [fold] | preference for A•T over T•A [2] | other results
CNC(=O)c1cc(NC(=O)c2cc(NC(=O)c3cc(NC(=O)c4cc(NC(=O)[C@H](N)CCNC(=O)c5cc(NC(=O)c6ccc7nc(-c8cc(NC(=O)c9nccn9C)cn8C)[nH]c7n6)cn5C)cn4C)cn3C)cn2C)cn1C [A] | – | – | – | specificity of match site versus A•T and T•A sites ([1]; G•C match vs A•T and T•A sites): similar; preference for match site 5′-TGTGTA-3′ versus the C•G site ([1]; G•C match vs C•G site): slight decrease; higher affinity than related all five-membered ring oligomer ([1]; site 5′-TGTGTA-3′): 5 fold; equilibrium association constant Ka ([1]; site 5′-TGTGTA-3′ (G•C), pH 7.0, 22° C., equilibration 12 h): 1.2e+10 M⁻¹
CN(C)CCCNC(=O)CCNC(=O)c1cc(NC(=O)c2cc(NC(=O)c3ccc4nc(-c5nc(NC(=O)CCCNC(=O)c6cc(NC(=O)c7ccc8nc(-c9nc(NC(=O)c%10nccn%10C)cn9C)[nH]c8c7O)cn6C)cn5C)[nH]c4c3)cn2C)cn1C [I] | 13 fold | 2.5 | – | –
CNC(=O)c1cc(NC(=O)c2cc(NC(=O)c3cc(NC(=O)c4cc(NC(=O)[C@H](N)CCNC(=O)c5cc(NC(=O)c6ccc7nc(-c8cc(NC(=O)c9nccn9C)cn8C)[nH]c7c6)cn5C)cn4C)cn3C)cn2C)cn1C [C] | – | – | – | binding site preference, affinity and specificity compared with related all five-membered ring oligomer ([1]; B vs Q, C vs P): same binding site preference
CN(C)CCCNC(=O)CCNC(=O)c1cc(NC(=O)c2cc(NC(=O)c3cc(NC(=O)c4nc(NC(=O)CCCNC(=O)c5cc(NC(=O)c6ccc7nc(-c8nc(NC(=O)c9nccn9C)cn8C)[nH]c7c6O)cn5C)cn4C)cn3C)cn2C)cn1C [G] | more than 50 fold | 10 | – | –
CN(C)CCCNC(=O)CCNC(=O)c1cc(NC(=O)c2cc(NC(=O)c3ccc4nc(-c5nc(NC(=O)CCCNC(=O)c6cc(NC(=O)c7cc(NC(=O)c8nc(NC(=O)c9nccn9C)cn8C)cn7C)cn6C)cn5C)[nH]c4c3O)cn2C)cn1C [J] | more than 30 fold | – | more than 4 fold | –
CN(C)CCCNC(=O)CCNC(=O)c1cc(NC(=O)c2cc(NC(=O)c3ccc4nc(-c5nc(NC(=O)CCCNC(=O)c6cc(NC(=O)c7ccc8nc(-c9nc(NC(=O)c%10nccn%10C)cn9C)[nH]c8c7)cn6C)cn5C)[nH]c4c3O)cn2C)cn1C [L] | 4.5 fold | – | 2.5 fold | Ka (affinity) ([2]; 5′-TGGXCA-3′, 22° C., pH 7.0): high affinity
